Measured values taken from US10590126B2, “Non-selective protease activated receptor 4 ALA120THR isoform antagonist” (THOMAS JEFFERSON UNIVERSITY, priority 2015, dated 2020).
“Also recorded” adds a separate entry of the source.

Assays:
[1] = tested on: PAR4 Ala120 and Thr120 variants; assay: PAR4-induced platelet activation, platelets of subjects of the 3 genotypes (FIG. 1); assay type: cell-based, human; details: subjects with and without the Thr120 variant (Ala/Ala, Ala/Thr, Thr/Thr)
Protocol: FIG. 1. Summary of results using all three PAR4 variants. […] Data are shown as the average of the percent of maximal activation, where maximal activation was the DMSO data.
[…] of mouse or PAC1 was added to each sample of platelets that contained compounds. 5 mL of compound was added to inhibitor samples. Tyrodes with 1% final concentration, DMSO were added to inhibitor samples with no controls. Each sample was incubated for two minutes. 5.5 mL of PAR4-AP was added to all samples except the no agonist control. Final concentrations of samples=[…]. Samples were gently mixed and sat at room temperature for 10 minutes. 50 mL of 2% paraformaldehyde was added to each sample and sat at room temperature for 10 minutes. 500 mL of Tyrodes were then added and samples were run of the C6 Accuri.

[2] = tested on: platelets expressing PAR4 Thr120; details: individuals expressing PAR4 Thr120; cited from earlier work
[3] = tested on: platelets expressing PAR4 Ala120; details: individuals expressing PAR4 Ala120; cited from earlier work

Compound | blockade of PAR4-induced platelet activation [1] | blockade of PAR4-induced platelet activation ([1]; listed as VU478046-1) | inhibiting platelet aggregation [2] | inhibiting platelet aggregation [3]
Cn1c(CO)c(-c2ccccc2)c2cc([N+](=O)[O-])ccc21 [VU0099704-4] | effectively blocked; also recorded: greatest effective blockade | – | – | –
CCCNCc1c(-c2ccccc2)c2cc([N+](=O)[O-])ccc2n1C [VU0478046-1] | effectively blocked | greatest effective blockade | – | –
CNCc1c(-c2ccccc2)c2cc([N+](=O)[O-])ccc2n1C [VU0478944-1] | effectively blocked; also recorded: greatest effective blockade | – | – | –
COC(=O)[C@H](c1ccccc1Cl)N1CCc2sccc2C1 [clopidogrel] | – | – | not effective | selective
